The values that follow come from patent US11639503B2, “Anti-chymase aptamer and use for same” (RIBOMIC INC., priority 2017, dated 2023).

The target in this series is T1, chymase purified from human skin mast cell (native, Calbiochem) (Homo sapiens, UniProt P23946).
T1 construct: Here, the native is chymase purified from human skin mast cell; purchased Calbiochem; host or cells: human skin mast cell (tissue-derived)
T1 sequence (P23946 22-247): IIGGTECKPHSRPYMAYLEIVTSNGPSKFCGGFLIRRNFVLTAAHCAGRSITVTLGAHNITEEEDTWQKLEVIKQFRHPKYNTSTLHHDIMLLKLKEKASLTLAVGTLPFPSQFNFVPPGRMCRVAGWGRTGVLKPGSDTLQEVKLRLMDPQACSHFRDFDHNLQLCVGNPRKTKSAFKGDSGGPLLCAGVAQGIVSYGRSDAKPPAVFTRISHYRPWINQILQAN
Nature of the series: chymase enzyme activity inhibition, native substrate angiotensin I (His-Leu fluorescence). As to conditions: mean of 2 or 3 measurements. The class given is biochemical. As to the method:
A second method of evaluation employs a native substrate. A useful native substrate for chymase is angiotensin I. Here, His-Leu, a peptide fragment released upon degradation of angiotensin I, is fluorescently derivatized, and the fluorescence intensity therefrom is quantified.
In the assay, an enzyme reaction is carried out in 50 μL of solution C. First, 0.3-0.75 ng of chymase (recombinant, manufactured by SIGMA; or native, manufactured by Calbiochem) is diluted in solution C to obtain 5 μL chymase solution. Each nucleic acid is prepared in solution C to obtain 25 μL solutions. 5 μL of each chymase dilution and 25 μL of each nucleic acid solution are mixed, and then the mixture is incubated at 37° C. for 5 minutes. Separately, 20 μL of 125 μM angiotensin I (manufactured by Peptide Institute, Inc.) is prepared in solution C and incubated at 37° C. for 5 minutes. The angiotensin I solution is added to the mixture of chymase and nucleic acid, and the enzyme reaction is initiated. After the reaction was allowed to proceed at 37° C. for 90 minutes, 25 μL of ice-cooled 30% trichloroacetic acid solution is added to terminate the reaction. The entire mixture is centrifuged at 4° C., 14000 rpm for 10 minutes, and 30 μL of the resulting supernatant is used for the subsequent reaction for fluorescent derivatization.
After 30 μL of the supernatant is added to a 96-well plate (Black, manufactured by Costar), 15 μL of 2% o-phthalaldehyde (manufactured by SIGMA) solution in methanol and 170 μL of 0.3M NaOH solution are mixed in each well, and the plate is allowed to stand at room temperature for 10 minutes. Subsequently, 25 μL of 3M HCl solution is added to terminate the reaction. The plate is set to the microplate reader SpectraMax190 (manufactured by Molecular Devices Corporation), and the fluorescence intensity is determined at an excitation wavelength of 355 nm and a fluorescence wavelength of 460 nm.
For control, samples are treated and analyzed in the same manner in two cases: use of SEQ ID NO: 58 (negative control) and use of chymostatin, a known chymotrypsin-like serine protease inhibitor (positive control). In both cases, fluorescence intensity obtained at 0 minute reaction time serves as a blank determination. Taking the fluorescence intensity detected with the addition of an equal volume of solution C, in place of each nucleic acid, in the chymase enzyme reaction as 100%, the inhibitory rate for each test substance is calculated, and the inhibitor concentration required to cause a 50% inhibition of the enzyme activity (IC50) is determined.
Whether the nucleic acids shown by SEQ ID NO: 9 and 10 inhibit the enzyme activity of chymase was determined by the following method. Angiotensin I is converted by chymase to angiotensin II, during which a peptide fragment His-Leu is released. Since the peptide His-Leu is fluorescently derivatized by o-phthalaldehyde, its fluorescence intensity can be quantitatively measured.
The total volume of solution for an enzyme reaction in the assay was set to 50 μL, and the reaction was performed in solution C buffer. At first, native (manufactured by Calbiochem) was diluted with solution C to give 5 μL thereof. Here, the native is chymase purified from human skin mast cell. The nucleic acid was serially diluted with solution C at a concentration of 0.0027-2 μM to give 25 μL thereof. The chymase solution (5 μL) and the nucleic acid solution (25 μL) were mixed, and the mixture was incubated at 37° C. for 5 min. On the other hand, […] angiotensin I (manufactured by PEPTIDE INSTITUTE, INC.) was prepared in solution C to give 20 μL thereof, which was incubated at 37° C. for 5 min. The angiotensin I solution was added to a mixture of chymase and nucleic acid to start an enzyme reaction. The final chymase concentration of the reaction solution was 0.5 nM, and the final substrate concentration was 50 μM. […]

The mark [1] stands for this setting: Table 6, angiotensin I as substrate.
[2] abbreviates: Table 2, substrate angiotensin I 50 μM, chymase 0.5 nM, 37° C. 90 min.

Oligonucleotides are written 5' to 3', each unit as a sugar letter and its base; * is a phosphorothioate linkage, no mark a phosphodiester; rarer units and linkages stand in square brackets, end groups in braces. Plain capitals give the bases only. r = 2'-OH (RNA); f = 2'-fluoro

Under setting [1], “33(1) (AUGAUCGGACAUAACUAAUUAGGGGUGUCAA; aptamer; modified variant with 2'-O-methyl and end modifications, pattern not given here)” returned a half-inhibitory concentration (IC50) of 0.074 nM. Same read-out and setting: the same measure for “33(2) (AUGAUCGGACAUAACUAAUUAGGGGUGUCAA; aptamer; modified variant with 2'-O-methyl and end modifications, pattern not given here)”: 0.078 nM; for “33(3) (AUGAUCGGACAUAACUAAUUAGGGGUGUCAA; aptamer; modified variant with 2'-O-methyl and end modifications, pattern not given here)”: 0.071 nM; for “33(4) (AUGAUCGGACAUAACUAAUUAGGGGUGUCAA; aptamer; modified variant with 2'-O-methyl and end modifications, pattern not given here)”: 0.072 nM. On the same count and under the same terms, the same measure for “33(5) (AUGAUCGGACAUAACUAAUUAGGGGUGUCAA; aptamer; modified variant with 2'-O-methyl and end modifications, pattern not given here)”: 0.076 nM. Molecule “33(6) (AUGAUCGGACAUAACUAAUUAGGGGUGUCAA; aptamer; modified variant with 2'-O-methyl and end modifications, pattern not given here)” displayed a half-inhibitory concentration (IC50) under setting [1] of 0.053 nM. On the same count and under the same terms, the same measure for “33(7) (AUGAUCGGACAUAACUAAUUAGGGGUGUCAA; aptamer; modified variant with 2'-O-methyl and end modifications, pattern not given here)”: 0.071 nM; for “33(8) (AUGAUCGGACAUAACUAAUUAGGGGUGUCAA; aptamer; modified variant with 2'-O-methyl and end modifications, pattern not given here)”: 0.061 nM; for “33(9) (AUGAUCGGACAUAACUAAUUAGGGGUGUCAA; listed as RNA, chemistry not fully specified)”: 1.35 nM. Still for that read-out and setting: the same measure for “33(10) (AUGAUCGGACAUAACUAAUUAGGGGUGUCAA; aptamer; modified variant with 2'-O-methyl and end modifications, pattern not given here)”: 0.071 nM. Still for that read-out and setting: the same measure for “33(11) (AUGAUCGGACAUAACUAAUUAGGGGUGUCAA; aptamer; modified variant with 2'-O-methyl and end modifications, pattern not given here)”: 0.051 nM; for “33(12) (AUGAUCGGACAUAACUAAUUAGGGGUGUCAA; modification pattern variant (12), chemistry not fully specified)”: 0.048 nM; for “33(13) (AUGAUCGGACAUAACUAAUUAGGGGUGUCAA; aptamer; modified variant with 2'-O-methyl and end modifications, pattern not given here)”: 0.069 nM. Under setting [1], “33(14) (AUGAUCGGACAUAACUAAUUAGGGGUGUCAA; aptamer; modified variant with 2'-O-methyl and end modifications, pattern not given here)” yielded a half-inhibitory concentration (IC50) of 0.075 nM. As to “33(15) (AUGAUCGGACAUAACUAAUUAGGGGUGUCAA; aptamer; modified variant with 2'-O-methyl and end modifications, pattern not given here)”, the midpoint of inhibition under setting [1], the IC50, lay at 0.072 nM. Same read-out and setting: the same measure for “33(16) (AUGAUCGGACAUAACUAAUUAGGGGUGUCAA; aptamer; modified variant with 2'-O-methyl and end modifications, pattern not given here)”: 0.063 nM; for “33(17) (AUGAUCGGACAUAACUAAUUAGGGGUGUCAA; aptamer; modified variant with 2'-O-methyl and end modifications, pattern not given here)”: 0.038 nM.

B1: 10 (nucleic acid)
chain: rGrGrGrArAfCrGrArArGfCrGrAfCrArGrAfCfCrGrArAfUfCrArGrArArGfUfUfCrArAfCrAfUrGrGrAfCrAfUrArAfCrAfUfCrGrAfUrGrGrGrGfUrGfUfCrArArGfUrAfCfUrGrAfCrGrAfCrArGrA
As for B1, under setting [2], the half-inhibitory concentration (IC50) is 0.43 nM.

B2: 9 (nucleic acid)
chain: rGrGrGrArAfCrGrArArGfCrGrAfCrArGrAfCrGfUfUfCfCrArGfCrGfUfCfUrArAfUrAfCrGfUrGrArAfUrArAfCfCfUrGrAfUfCrGfUrArGrGrGrGrGfUfUfCrArArGfUrAfCfUrGrArGrGrAfCrArGrA
Consider B2, for which 0.22 nM corresponded to half-maximal inhibition under setting [2] (IC50).

The term IC50 denotes the concentration at which inhibition is half-maximal.
